This is an account of results in article PMC8510478, “Characterization and Identification of Bioactive Polyphenols in the Trapa bispinosa Roxb. Pericarp Extract” (Molecules, 2021).

Data set [1] concerns the target α-glucosidase. The data set can be described thus: α-Glucosidase inhibitory activity (rat intestinal acetone powder, maltose substrate). Format: biochemical. The following applies: for IC50: maltose, pH 7, 37 °C, means ± SE (n = 3), read-out: Inhibitory Effects on α-Glucosidase Activity IC50. The protocol:
The α-glucosidase inhibitory activity was tested according to the previously described method by Kirino et al. with a slight modification. Rat intestinal acetone powder was mixed with 0.1 M phosphate buffer (pH 7) and centrifuged at 18,500× g and 4 °C for 20 min. The resulting supernatant was collected and used as a glucosidase solution for enzymatic assay. Each sample solution (160 μL) was mixed with 250 mM maltose solution (20 μL) in 0.2 M phosphate buffer (pH 7) and then incubated at 37 °C for 3 min. After incubation, the enzymatic reaction was started by adding glucosidase solution from the rat intestine (20 μL) and the resulting reaction mixtures were further incubated at 37 °C for 15 min. After 15 min, the reaction mixtures were immediately heated at 100 °C for 5 min to stop the reaction followed by cooling on ice for 5 min. The amount of glucose in the reaction mixtures was determined using the F-Kit glucose (Roche diagnostics, Co., Tokyo, Japan) by measuring the absorbance at 340 nm. A control was carried out with 0.1 M phosphate buffer (pH 7) instead of sample solution. For the blank, the glucosidase solution was replaced with distilled water. The glucosidase inhibitory rates of tested samples were calculated as; Inhibitory rate (%) = 100 − [(Asample − Ablank)/(Acontrol − Ablank)] × 100(1) where Asample, Acontrol, and Ablank is the absorbance of the tested sample, control, and blank, respectively. The experimental data are represented as IC50 (μM) values.

Data set [2] can be described thus: AGE-derived crosslink-cleaving effect (PPD cleavage to benzoic acid, HPLC). The following applies: for Crosslink-Cleaving Activities Relative Ratio: tested samples 100 μg/mL, relative to PTB = 100, means ± SE (n = 3); for AGE cross-link cleaving activity (in words): compared with positive control PTB. The protocol: The AGE crosslink-cleaving activity of the same samples was evaluated according to the previously described method by Kato et al. with a slight modification. Briefly, the 1 mg/mL of tested samples prepared with H2O were mixed with 1.13 mM PPD solution in MeOH:50 mM phosphate buffer (pH 7.4) (1:1) and incubated at 37 °C for 4 h. After 4 h, the reaction was stopped with 200 μL of 2 M HCl, then the stopped reaction mixtures were centrifuged at 8200× g for 5 min. The amount of benzoic acid in the supernatant was measured by reversed-phase HPLC. The following conditions were applied: column, InertSustain C18 column (150 mm × 4.6 i.d mm., 5 μm); mobile phase, 50 mM phosphate buffer (pH 2.2):CH3CN (80:20) (solvent A) and 50 mM phosphate buffer (pH 2.2):CH3CN (50:50) (solvent B), the gradient program, 0–20 min (solvent B: 0–25%), 20–25 min (solvent B: 25–100%), 25–36 min (solvent B: 100–25%); column temperature, 40 °C; detection, UV at 230 nm; flow rate, 1.0 mL/min. These cleaving effects were calculated as equivalents to benzoic acid.

The test system of data set [3] is AGE formation in human serum albumin (HSA)/glucose or fructose. The data set can be described thus: Inhibitory effect on AGE formation (HSA with glucose or fructose, fluorescence). Format: biochemical. To be noted: 60 °C, 40 h, means ± SE (n = 3). The protocol: The antiglycation effects of compounds isolated from TBE and several other related compounds were evaluated based on their AGE inhibitory activities as described previously, with slight modifications. Briefly, the sample solution was added to a reaction mixture containing 83.3 mM phosphate buffer (pH 7.2), 2.0 M glucose, 2.0 M fructose, 8.0 mg/mL human serum albumin (HSA), and distilled water (6:1:1:1:1, v/v). As a control, the vehicle was supplemented instead of the sample solution. For each blank, glucose or fructose was replaced with distilled water, and the total volume was set to 1000 μL. After incubation of the sample mixture at 60 °C for 40 h, the solutions were diluted 8-fold with distilled water, dispensed into a black microplate in 200 µL portions, and their fluorescence intensities were measured at excitation and emission wavelengths of 370 and 465 nm, respectively, using a Power Scan HT (DS Pharma Biomedical Co. Ltd., Osaka, Japan). The inhibitory rate was calculated as; Inhibitory rate (%) = 100 − [(S − SB)/(C − CB)] × 100(2) where S is the relative intensity of the sample solution, C is the relative intensity of the control solution, and SB and CB are the intensities of the glucose or fructose-omitted blank solutions. The experimental data are represented as IC50 (μM) values.

Data set [4] addresses α-glucosidase. Also on record: method as in earlier work. To be noted: cited from earlier work; for IC50: table lines marked with reference 8, means ± SE (n = 3), read-out: Inhibitory Effects on α-Glucosidase Activity IC50; for Inhibitory activity on α-glucosidase (in words): ellagitannin dimers isolated from T. japonica.
[5] abbreviates: HSA/fructose, read-out: Inhibitory Effects on AGE Formation IC50, Fructose.
The mark [6] stands for this setting: HSA/glucose, read-out: Inhibitory Effects on AGE Formation IC50, Glucose.

Where a name gives a salt, the structure may show the parent alone. Read-outs that look alike come from different tables or passages of the source.

`O=C(OC[C@H]1O[C@@H](OC(=O)c2cc(O)c(O)c(O)c2)[C@H](OC(=O)c2cc(O)c(O)c(O)c2)[C@@H](OC(=O)c2cc(O)c(O)c(O)c2)[C@@H]1OC(=O)c1cc(O)c(O)c(O)c1)c1cc(O)c(O)c(O)c1` [1,2,3,4,6-Penta-O-galloyl-β-D-glucose, reference compound]: the figures for the IC50 (at α-glucosidase [1]; in data set [3] (setting [5]); in data set [3] (setting [6])) were 59 ± 0.4 µM, 0.2 µM and 0.2 µM, respectively. For the same molecule, the “Crosslink-Cleaving Activities Relative Ratio” value in data set [2] is on record as 97.9 ± 2.1.

Turning to `N=C(N)NN` [Aminoguanidine, aminoguanidine hydrochloride, reference compound], the IC50 in data set [3] (setting [5]) was 801 ± 17.7 µM; in data set [3] (setting [6]), 259 ± 6.8 µM.

Take `O=C(OC[C@H]1O[C@@H](O)[C@H](OC(=O)c2cc(O)c(O)c(O)c2)[C@@H](O)[C@@H]1O)c1cc(O)c(O)c(O)c1` [Compound 1, 2,6-di-O-galloyl-β-D-glucose]: in data set [2], the “Crosslink-Cleaving Activities Relative Ratio” value was found to be 77.4 ± 4.0. Besides, the IC50 amounted to 3.3 µM in data set [3] (setting [5]) and 1.5 ± 0.1 µM in data set [3] (setting [6]).

Consider `O=C(O[C@@H]1O[C@H](CO)[C@@H](O)[C@H](OC(=O)c2cc(O)c(O)c(O)c2)[C@H]1OC(=O)c1cc(O)c(O)c(O)c1)c1cc(O)c(O)c(O)c1` [Compound 2, 1,2,3-tri-O-galloyl-β-D-glucose], for which, in data set [2], the “Crosslink-Cleaving Activities Relative Ratio” value came out at 190.5 ± 2.5. Moreover, the IC50 at α-glucosidase [4] is over 100 µM; in data set [3] (setting [5]), 0.4 µM; in data set [3] (setting [6]), 0.4 µM.

Turning to `O=C(OC[C@H]1O[C@@H](OC(=O)c2cc(O)c(O)c(O)c2)[C@H](OC(=O)c2cc(O)c(O)c(O)c2)[C@@H](O)[C@@H]1O)c1cc(O)c(O)c(O)c1` [Compound 3, 1,2,6-tri-O-galloyl-β-D-glucose], the “Crosslink-Cleaving Activities Relative Ratio” value in data set [2] was found to be 146.6 ± 12.6. Besides, the IC50 is over 100 µM at α-glucosidase [4], 0.4 µM in data set [3] (setting [5]) and 0.3 µM in data set [3] (setting [6]).

As for `O=C(OC[C@H]1O[C@@H](O)[C@H](OC(=O)c2cc(O)c(O)c(O)c2)[C@@H](OC(=O)c2cc(O)c(O)c(O)c2)[C@@H]1O)c1cc(O)c(O)c(O)c1` [Compound 4, 2,3,6-tri-O-galloyl-β-D-glucose], the IC50 came to 1 µM in data set [3] (setting [5]) and 0.3 µM in data set [3] (setting [6]).

On to `O=C(OC[C@H]1O[C@@H](OC(=O)c2cc(O)c(O)c(O)c2)[C@H](OC(=O)c2cc(O)c(O)c(O)c2)[C@@H](O)[C@@H]1OC(=O)c1cc(O)c(O)c(O)c1)c1cc(O)c(O)c(O)c1` [Compound 6, 1,2,4,6-tetra-O-galloyl-β-D-glucose], for which the results for the IC50 (on α-glucosidase [1]; in data set [3] (setting [5]); in data set [3] (setting [6])) were over 100 µM, 0.3 µM and 0.3 µM, respectively. In addition, in data set [2], the “Crosslink-Cleaving Activities Relative Ratio” value was determined as 159.6 ± 12.7.

With `O=C(O[C@@H]1O[C@@H]2COC(=O)c3cc(Oc4ccc(O)c(O)c4O)c(O)c(O)c3-c3c(cc(O)c(O)c3O)C(=O)O[C@H]2[C@H](OC(=O)c2cc(O)c(O)c(O)c2)[C@H]1OC(=O)c1cc(O)c(O)c(O)c1)c1cc(O)c(O)c(O)c1` [Compound 8, decarboxylated rugosin A], the IC50 at α-glucosidase [1] came out at 20.7 ± 0.1 µM; in data set [3] (setting [5]) it was 0.3 µM; in data set [3] (setting [6]), 0.3 µM. Also, the “Crosslink-Cleaving Activities Relative Ratio” value in data set [2] was 233.0 ± 5.8.

For `O=C(O[C@@H]1O[C@@H]2COC(=O)c3cc(Oc4c(C(=O)O[C@H]5C(O)O[C@@H]6COC(=O)c7cc(O)c(O)c(O)c7-c7c(cc(O)c(O)c7O)C(=O)O[C@H]6[C@@H]5OC(=O)c5cc(O)c(O)c(O)c5)cc(O)c(O)c4O)c(O)c(O)c3-c3c(cc(O)c(O)c3O)C(=O)O[C@H]2[C@H](OC(=O)c2cc(O)c(O)c(O)c2)[C@H]1OC(=O)c1cc(O)c(O)c(O)c1)c1cc(O)c(O)c(O)c1` (some centres unmarked) [Compound 9, camptothin B], the half-inhibitory concentration (IC50) on α-glucosidase [1] was over 100 µM; in data set [3] (setting [5]), 0.2 µM; in data set [3] (setting [6]), 0.1 µM. Further, the “Crosslink-Cleaving Activities Relative Ratio” value in data set [2] is on record as 180.6 ± 4.2.

Turning to `COc1cc(C2Oc3c(OC)cc(CCCO)cc3C2COC2OC(CO)C(O)C(O)C2O)ccc1O` [Compound 10, (7′S,8′R)-dihydrodehydrodiconiferyl alcohol-9′-O-β-D-glucoside], the “α-Glucosidase inhibitory activity (in words)” value in the data set on α-glucosidase [1] was “no inhibitory activity”. The IC50 on α-glucosidase [1] was over 100 µM; in data set [3] (setting [5]) it was over 1000 µM; in data set [3] (setting [6]), over 500 µM. Besides, in data set [2], the “Crosslink-Cleaving Activities Relative Ratio” value was determined as 16.7 ± 1.4.

Regarding `O=c1oc2c(Oc3ccc(O)c(O)c3O)c(O)cc3c(=O)oc4c(O)c(O)cc1c4c23` [Compound 11, rubuphenol], in the data set with α-glucosidase [1], the “α-Glucosidase inhibitory activity (in words)” value was “no inhibitory activity” and the IC50 was over 100 µM. In addition, in data set [2], the “AGE cross-link cleaving activity (in words)” value is “remarkable activities” and the “Crosslink-Cleaving Activities Relative Ratio” value turned out to be 514.8 ± 11.2. The IC50 in data set [3] (setting [5]) is 4.7 ± 0.3 µM. Further, in data set [3] (setting [6]), the IC50 worked out at 2.4 µM.

In the case of `O=c1oc2c(O)c(Oc3ccc(O)c(O)c3O)cc3c(=O)oc4c(O)c(O)cc1c4c23` [Compound 12, eschweilenol A], in the data set with α-glucosidase [1], the “α-Glucosidase inhibitory activity (in words)” value is “no inhibitory activity” and the IC50 is over 100 µM. Moreover, in data set [2], the “AGE cross-link cleaving activity (in words)” value is reported as “remarkable activities” and the “Crosslink-Cleaving Activities Relative Ratio” value was 484.5 ± 12.5. Besides, the IC50 in data set [3] (setting [5]) is 2.9 ± 0.1 µM. For the same molecule, the half-inhibitory concentration (IC50) in data set [3] (setting [6]) came out at 2.4 µM.

For the molecule `COc1cc([C@H]2Oc3c(OC)cc(CCCO)cc3[C@@H]2CO)ccc1O` [Compound 13], the “α-Glucosidase inhibitory activity (in words)” value in the data set with α-glucosidase [1] is given as “no inhibitory activity”. For the same molecule, the results for the 50% inhibitory concentration (IC50) (at α-glucosidase [1]; in data set [3] (setting [5]); in data set [3] (setting [6])) were over 100 µM, over 1000 µM and over 500 µM, respectively. For the same molecule, the “Crosslink-Cleaving Activities Relative Ratio” value in data set [2] is given as 17.2 ± 1.1.

For `O=c1oc2c(O)c(O)cc3c(=O)oc4c(O)c(O)cc1c4c23` [Ellagic acid, reference compound], the “α-Glucosidase inhibitory activity (in words)” value with α-glucosidase [1] is “little effect”. The IC50 at α-glucosidase [1] is over 100 µM; in data set [3] (setting [5]), 2.5 ± 0.1 µM; in data set [3] (setting [6]) it was 1.8 ± 0.1 µM. In addition, the “Crosslink-Cleaving Activities Relative Ratio” value in data set [2] is listed as 11.4 ± 0.1.

For `O=C(C[n+]1ccsc1)c1ccccc1.[Br-]` [N-Phenacylthiazolium bromide (PTB), N-phenacylthiazolium bromide, reference compound], the “Crosslink-Cleaving Activities Relative Ratio” value in data set [2] turned out to be 100.

As for `O=C(O[C@@H]1O[C@@H]2COC(=O)c3cc(Oc4c(C(=O)O[C@@H]5O[C@@H]6COC(=O)c7cc(O)c(O)c(O)c7-c7c(cc(O)c(O)c7O)C(=O)O[C@H]6[C@H](OC(=O)c6cc(O)c(O)c(O)c6)[C@H]5OC(=O)c5cc(O)c(O)c(O)c5)cc(O)c(O)c4O)c(O)c(O)c3-c3c(cc(O)c(O)c3O)C(=O)O[C@H]2[C@H](OC(=O)c2cc(O)c(O)c(O)c2)[C@H]1OC(=O)c1cc(O)c(O)c(O)c1)c1cc(O)c(O)c(O)c1` [rugosin D, reference compound], in the data set with α-glucosidase [4], the “Inhibitory activity on α-glucosidase (in words)” value is reported as “comparable to that of acarbose”.

Take Cornusiin G [reference compound]: in the data set on α-glucosidase [4], the “Inhibitory activity on α-glucosidase (in words)” value was “comparable to that of acarbose” and the IC50 was 6.3 ± 0.1 µM.
